Legend:
Format in all cases: biochemical
[1] = target: T1, B. cereus penPC β-lactamase (Bacillus cereus, UniProt P00809); assay: Drug screening: E166Cf fluorescence in presence of bacterial β-lactamase culture; set-up: key: −: Decline in fluorescence signal (presence of beta-lactam hydrolysis); +: No decline in fluorescence signal (absence of beta-lactam hydrolysis); settings: antibiotic 1.0×10^−4 M, E166Cf 1.2×10^−7 M
T1 construct: made in house; host or cells: B. subtilis 1A304 (φ105MU331); whole culture used, not purified
T1 sequence (P00809 28-306): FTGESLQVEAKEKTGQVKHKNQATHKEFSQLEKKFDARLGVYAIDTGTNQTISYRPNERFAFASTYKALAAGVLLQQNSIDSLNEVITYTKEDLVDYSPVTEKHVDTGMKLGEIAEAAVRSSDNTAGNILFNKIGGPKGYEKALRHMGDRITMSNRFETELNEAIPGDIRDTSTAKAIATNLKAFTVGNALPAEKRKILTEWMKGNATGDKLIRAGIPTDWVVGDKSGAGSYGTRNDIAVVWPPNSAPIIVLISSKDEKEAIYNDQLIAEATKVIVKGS
Procedure: (§1) The use of the E166Cf enzyme in screening bacterial β-lactamases against various β-lactam antibiotics was investigated. The principle of our method is that when both E166Cf and bacterial β-lactamase are incubated with ‘β-lactamase-unstable’ antibiotics, the fluorescence of the E166Cf enzyme will be suppressed because of the greater catalytic efficiency of the bacterial enzyme. In contrast, when bacterial β-lactamases are screened against ‘β-lactamase-resistant’ antibiotics, the fluorescence of the E166Cf enzyme will be enhanced because of the poor hydrolytic activity of the bacterial enzyme. Thus, any β-lactam antibiotic that causes the labeled enzyme to increase its fluorescence intensity in the presence of bacterial β-lactamases can be used in clinical treatments.
(§2) The β-lactamase II, penPC β-lactamase and penP β-lactamase were expressed in B. subtilis 1A304 (φ105MU331). These enzymes were prepared according to the procedures described previously (Reference 7: Thomwell, S. J. East, A. K., Errington, J. An efficient expression and secretion system based on Bacillus subtilis phage phi 105 and its uses for the production for B. cereus β-lactamase I. (1993) Gene 133, 47-53) with slight modifications. A bacterial strain was streaked on an agar plate containing 5 μg/ml chloramphenicol, and the plate was incubated at 37° C. for 24 h. A single bacterial colony from the agar plate was inoculated into 100 ml of sterilized BHY medium (37 g/l brain heart infusion and 5 g/l yeast extract) which was then incubated at 37° C. with shaking at 300 rpm overnight. About 7 ml of overnight inoculum was added to a baffled conical flask containing 100 ml of sterilized BHY medium. The inoculated medium was incubated at 37° C. with shaking at 300 rpm. When the optical density of the bacterial culture at 600 nm reached 3.5 to 4.0, the bacterial culture was heated in a water bath at 51° C. for 5 min. Afterwards, the bacterial culture was incubated at 37° C. with shaking at 300 rpm for a further 6 h. The bacterial culture was then harvested and stored at −20° C.
(§3) Fluorescence measurements of the E166Cf enzyme in the presence of bacterial cultures and β-lactam antibiotics were performed on a FLUOstar microplate reader (BMG Labtechnologies) equipped with two sample injectors. Excitation and emission filters of 485 and 520 nm respectively were used. For B. cereus penPC β-lactamase, B. licheniformis penP β-lactamase and B. cereus β-lactamase II, the labeled enzymes were mixed with the bacterial cultures, and the mixtures were made up to 300 μl with 50 mM phosphate buffer (pH 7.0) in a 96-well microtiter plate (Corning Costar). For the purpose of comparison, B. subtilis cultures, which produced no β-lactamase, were set up as negative controls. For E. coli. TEM-1 β-lactamase, the labeled enzymes were mixed with the bacterial cultures without dilution. E. coli. cultures, which produced no β-lactamase, were set up as negative controls for comparison. The antibiotics were then added to the bacterial samples by the injectors.
(§4) The results from the time-resolved fluorescence measurements of the labeled enzyme (1.2×10^−7 M) in the presence of various bacterial cultures and β-lactam antibiotics (1.0×10^−4 M) are shown in FIGS. 23 to 26.

B. cereus β-lactamase II = target: T2, B. cereus β-lactamase II (Bacillus cereus, UniProt P04190); assay: as above; set-up: key: −: Decline in fluorescence signal (presence of beta-lactam hydrolysis); +: No decline in fluorescence signal (absence of beta-lactam hydrolysis); settings: antibiotic 1.0×10^−4 M, E166Cf 1.2×10^−7 M
T2 construct: made in house; host or cells: B. subtilis 1A304 (φ105MU331); whole culture used, not purified
T2 sequence (P04190 31-257): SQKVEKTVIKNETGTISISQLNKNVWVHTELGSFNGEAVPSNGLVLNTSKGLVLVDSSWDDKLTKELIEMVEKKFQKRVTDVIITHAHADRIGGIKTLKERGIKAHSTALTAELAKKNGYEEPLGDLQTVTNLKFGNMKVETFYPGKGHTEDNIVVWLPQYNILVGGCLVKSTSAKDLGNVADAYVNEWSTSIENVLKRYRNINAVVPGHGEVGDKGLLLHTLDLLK
Procedure: as §1, §2, §3, §4

[2] = target: T3, B. licheniformis penP β-lactamase (Bacillus licheniformis, UniProt P00808); assay: as above; set-up: key: −: Decline in fluorescence signal (presence of beta-lactam hydrolysis); +: No decline in fluorescence signal (absence of beta-lactam hydrolysis); settings: antibiotic 1.0×10^−4 M, E166Cf 1.2×10^−7 M
T3 construct: made in house; host or cells: B. subtilis 1A304 (φ105MU331); whole culture used, not purified
T3 sequence (P00808 27-307): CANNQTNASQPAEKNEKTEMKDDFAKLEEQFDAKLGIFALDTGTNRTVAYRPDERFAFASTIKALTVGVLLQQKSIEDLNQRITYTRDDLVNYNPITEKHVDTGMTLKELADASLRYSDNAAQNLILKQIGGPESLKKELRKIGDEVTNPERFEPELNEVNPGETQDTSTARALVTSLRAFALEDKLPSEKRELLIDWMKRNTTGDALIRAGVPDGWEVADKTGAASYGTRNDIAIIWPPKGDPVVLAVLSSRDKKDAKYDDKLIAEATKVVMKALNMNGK
Procedure: as §1, §2, §3, §4

E166Cf enzyme = target: T4, E166Cf enzyme (Bacillus cereus, UniProt P00809, E185C); assay: Time-resolved fluorescence of E166Cf enzyme with penicillins and cephalosporins; settings: E166Cf 1.2×10^−7 M
T4 construct: made in house; host or cells: B. subtilis 1A304 (φ105MU331); then labelled chemically
T4 sequence (P00809 28-306 E185C): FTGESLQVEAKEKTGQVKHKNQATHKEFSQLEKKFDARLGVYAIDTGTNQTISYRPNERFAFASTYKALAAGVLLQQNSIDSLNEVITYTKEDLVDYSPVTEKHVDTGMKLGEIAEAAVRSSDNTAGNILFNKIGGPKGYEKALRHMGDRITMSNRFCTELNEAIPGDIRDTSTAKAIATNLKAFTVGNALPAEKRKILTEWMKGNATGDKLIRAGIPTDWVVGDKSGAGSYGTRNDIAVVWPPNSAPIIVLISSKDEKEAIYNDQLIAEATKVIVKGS
Procedure: Fluorescence measurements of the E166Cf enzyme in the presence of penicillin G, penicillin V, ampicillin, cefuroxime, cefoxitin and moxalactam were performed on a Perkin Elmer LS50B spectrofluorometer. For time-resolved fluorescence measurement, excitation and emission wavelengths were set at 494 and 515 nm respectively. Both excitation and emission slit widths were set at 5 nm. All fluorescence measurements were performed at room temperature.
With penicillin G as substrate, the fluorescence signal of the E166Cf enzyme (1.2×10^−7 M) at 515 nm in 50 mM phosphate buffer (pH 7.0) increases as a function of the antibiotic concentration (FIG. 4). The time-resolved fluorescence signals of the E166Cf enzyme at 515 nm were also measured with various concentrations of penicillin G (FIG. 5). At low antibiotic concentration (1.0×10^−7 and 1.0×10^−6 M), the fluorescence intensity of the E166Cf enzyme increases gradually and then declines. At high antibiotic concentration (1.0×10^−5 and 1.0×10^−4 M), the fluorescence signal increases instantaneously and levels off to a plateau. The fluorescence signal stays at the plateau for a certain length of time and then declines afterwards. Similar results were obtained with penicillin V and ampicillin (FIGS. 6 and 7).
With cefuroxime, cefoxitin and moxalactam as substrates, the fluorescence intensities of the E166Cf enzyme (1.2×10^−7 M) at 515 nm in 50 mM phosphate buffer (pH 7.0) also increase as a function of antibiotic concentration (FIGS. 8 to 10).
At high substrate concentration (1.0×10^−5 and 1.0×10^−4 M), the penicillin substrates rapidly occupy the active sites to form the ES complexes, thus switching on the fluorescence of the fluorescein labels instantaneously. […] This can be verified by the fact that the ‘plateau time’ (8 and 22 min for 1.0×10^−5 and 1.0×10^−4 M penicillin G respectively) is consistent with the ‘substrate hydrolysis time’ determined by spectrophotometric assays (7 and 20 min for 1.0×10^−5 and 1.0×10^−4 M penicillin G respectively). When most of the penicillin substrates have been hydrolyzed to carboxylic acids, the fluorescence signal of the labeled enzyme will decline subsequently.

CC1(C)S[C@@H]2[C@H](NC(=O)Cc3ccccc3)C(=O)N2[C@H]1C(=O)O [Penicillin G, penicillin G]
fluorescence signal of E166Cf (beta-lactam hydrolysis) [1]: −
fluorescence signal of E166Cf (beta-lactam hydrolysis) (B. cereus β-lactamase II): −
fluorescence signal of E166Cf (beta-lactam hydrolysis) [2]: −
plateau time of fluorescence signal (E166Cf enzyme; 1.0×10^−4 M antibiotic): 22 min
plateau time of fluorescence signal (E166Cf enzyme; 1.0×10^−5 M antibiotic): 8 min
